Source: patent EP0934940A1, “CYTOKINE PRODUCTION INHIBITORS, TRIAZEPINE COMPOUNDS, AND INTERMEDIATES THEREOF” (Japan Tobacco Inc., priority 1996, dated 1997)
Structures can show the parent of a compound that is named as a salt. Where two headings read alike, the source gives them in different places.

How the values were obtained:
IL-6 [1] = test: Inhibitory activity on IL-6 production from LPS-stimulated human PBMC (ELISA); format: cell-based; settings: 24 h
Experimental: (§1) Inhibitory activity on cytokine production from human PBMC (peripheral blood mononuclear cell)
(§2) PBMC fractions were isolated from human blood using a mono-poly resolving medium. The cells (PBMC) were cultured in 5% FCS (fetal calf serum)/RPMI1640 medium. Thereafter, the test compound was added to the final concentration of 0.001-10 µM, and LPS (lipopolysaccharide) was added to the final concentration of 10 µg/ml. After incubatioin for 24 hours, the supernatant was separated and freeze stocked at -80°C.
(§3) On the day of experiment, the supernatant was thawed and the production amount of cytokine was measured by ELISA. IL-6 was assayed using [(h)IL-6] human, ELISA system (Amersham); TNF-α was assayed using [(h)TNF-α] human, ELISA system (Amersham); GM-CSF was assayed using human GM-CSF immunoassay (R&D systems); and IL-8 was assayed using human IL-8 immunoassay (R&D systems). The determination method followed the method of each kit. The results are expressed in IC50.

IL-6 [2] = test: Inhibitory activity on in vivo IL-6 production by LPS stimulation; settings: male ICR mice, LPS stimulation i.v., test compound 10 mg/kg p.o. at the same time, blood two hours later, relative to 0.5% CMC-Na group; for inhibition in vivo at 10 mg/kg: Mus musculus, po, 2 h, read-out: Inhibtion (%) of plasma IL-6 production (10 mg/kg, p.o.)
Experimental: Inhibitory activity on in vivo IL-6 production by LPS stimulation
LFS (0.3 mg/kg) was intravenously administered to male ICR mice (6-week-old) fasted for 24 hours. At the same time, the test compound suspended in 0.5% CMC-Na ( carboxymethylcellulose sodium) was orally administered at the dose of 10 mg/kg.
Two hours later, blood was taken from eyegrounds. The blood was centrifuged, and the plasma fraction was diluted and quantitatively assayed for IL-6 in blood by ELISA (Endogen EM-IL6). The inhibitory percentage of the group administered with the test compound was expressed relative to the amount of IL-6 in blood of the cup administered with 0.5% CMC-Na.

TNF-α [3] = test: Inhibitory activity on TNF-α production from LPS-stimulated human PBMC (ELISA); format: cell-based
Experimental: as §1, §2, §3

GM-CSF = test: Inhibitory activity on GM-CSF production from LPS-stimulated human PBMC (immunoassay); format: cell-based; settings: 24 h, read-out: GM-CSF IC50 (µM)
Experimental: as §1, §2, §3

IL-2 = test: Inhibitory activity on IL-2 production in concanavalin A-stimulated spleen cells; format: cell-based, Balb/c mice; settings: Balb/c mouse spleen cells, 5 µg/ml concanavalin A, 24 hours, EIA
Experimental: (§4) Inhibitory activity on IL-2 and IFNγ production
(§5) The spleen cells obtained from 9-week-old Balb/c mice (Charles River Japan, Inc.) was suspended in RPMI-1640 medium supplemented with 10% FCS, at 4 × 10^6 cells/ml. The suspended cells were incubated in a 96 well plate (0.25 ml per well) in the presence of 5 µg/ml concanavalin A. The cells were cultured with or without addition of various concentrations of test compounds. After 24 hours' incubation, the culture broth was taken for assay of cytokine and preserved at -80°C. The concentrations of IL-2 and IFNγ in the culture broth were measured using an EIA kit (perSeptive Diagnostic) according to the attached protocol. The results are expressed in IC50.

TNF-α [4] = test: Inhibitory activity on in vivo TNF-α production by LPS stimulation; settings: male ICR mice, 30 mg/kg p.o. 30 minutes before LPS 0.3 mg/kg i.v., blood one hour after LPS, relative to 0.5% CMC-Na group
Experimental: Inhibitory activity on in vivo TNF-α production by LPS stimulation
The test compound suspended in 0.5% CMC-Na (carboxymethylcellulose sodium) was orally administered at the dose of 30 mg/kg to male ICR mice (6-week-old) fasted for 24 hours. At 30 minutes after oral administration, LPS was intravenously administered at the dose of 0.3 mg/kg. At one hour after LSP administration, blood was taken from the heart. The TNF-α in plasma was assayed by ELISA (Genzyme). The suppression of TNF-α production of the group administered with test compounds was calculated by the following formula. Inhibition (%) =[1-(test compound administered group)/(0.5% CMC-Na administered group)]× 100 [formula]

Adjuvant arthritis (AIA) = test: Effects on rat adjuvant arthritis (hind limb edema); format: in vivo; settings: Lewis rats, 10 mg/kg p.o. once a day for 28 days from day 0, hind limb edema at day 28, mean±standard error, **p < 0.01
Experimental: Effects on rat adjuvant arthritis
Lewis rats (5-week-old, Charles River Japan, Inc.) were used for the test. Adjuvant arthritis (AIA) was induced by injection (0.5 mg) of Mycobacterium butyricum (Difco) suspended in paraffin oil, from the root of the tail at day 0. The volume of the hind limb was measured with time after the injection of adjuvant. The test compound was suspended in 0.5% HPMC (hydroxypropylmethycellulose) and orally administered at the dose of 10 mg/kg once a day for 28 days from day 0. The suppression of edema of hind limb at day 28 was calculated as follows. Suppression (%) = 100 ×((AIA treated group-AIA control group))/((normal control group-AIA control group)) [formula]
The results are shown in mean±standard error and tested by Student-test. The result was significant when p value was less than 0.05.

IL-8 = test: Inhibitory activity on IL-8 production from LPS-stimulated human PBMC (immunoassay); format: cell-based; settings: 24 h, read-out: IL-8 IC50 (µM)
Experimental: as §1, §2, §3

IFNγ = test: Inhibitory activity on IFNγ production in concanavalin A-stimulated spleen cells; format: cell-based, Balb/c mice; settings: Balb/c mouse spleen cells, 5 µg/ml concanavalin A, 24 hours, EIA
Experimental: as §4, §5

[5] = human PBMC, LPS 10 µg/ml, incubation 24 hours, supernatant ELISA, read-out: IL-6 IC50
[6] = Homo sapiens, PBMC, 24 h, human PBMC, LPS 10 µg/ml, incubation 24 hours, supernatant ELISA, read-out: TNF-α IC50

Row | IC50 (TNF-α [3]; [6]) | Structure (SMILES) | inhibition in vivo at 10 mg/kg (IL-6 [2]) | Inhibtion (%) of plasma IL-6 production (10 mg/kg, p.o.) (IL-6 [2]) | other results
1 | 0.02 µM | Cc1nnc2n1-c1ccccc1C(c1ccc(N)cc1)=NN2Cc1ccc(C#N)cc1 [Synthetic Example 192, 4-[4-(4-Cyanobenzyl)-1-methyl-4H-2,3,4,5,10b-pentaazabenz[e]azulen-6-yl]phenylamine hydrochloride] | 67% | – | IC50 (IL-6 [1]; [5]): 0.03 µM
2 | 0.001 µM | Cc1nnc2n1-c1ccccc1C(c1ccc(N)cc1)=NN2Cc1ccc([N+](=O)[O-])cc1 [Synthetic Example 193, 4-[1-Methyl-4-(4-nitrobenzyl)-4H-2,3,4,5,10b-pentaazabenz[e]azulen-6-yl]phenylamine hydrochloride] | 67% | – | IC50 (IL-6 [1]; [5]): < 0.001 µM
3 | – | Cc1nnc2n1-c1ccccc1C(c1ccc(Cl)cc1)=NN2Cc1cccnc1 [compound 19] | – | – | IC50 (GM-CSF): 0.05 µM; IC50 (IL-2): 240 nM; Inhibition (%) of plasma TNF-α production (30 mg/kg, p.o.) (TNF-α [4]): 51%; Suppression (%) of edema (Adjuvant arthritis (AIA)): 72.7±3.3** %; IC50 (IL-8): 0.26 µM; IC50 (IFNγ): 120 nM
4 | 0.001 µM | Cc1nnc2n1-c1ccccc1C(c1ccc(N)cc1)=NN2Cc1ccc(Cl)cc1 [Synthetic Example 191, 4-[4-(4-Chlorobenzyl)-1-methyl-4H-2,3,4,5,10b-pentaazabenz[e]azulen-6-yl]phenylamine hydrochloride] | 62% | – | IC50 (IL-6 [1]; [5]): 0.001 µM
5 | – | Cc1cc2c(s1)-n1c(C)nnc1N(Cc1ccc(-c3nnnn3C)cc1)N=C2c1ccccc1 [Example 16] | – | 84% | IC50 (IL-6 [1]; read-out: IL-6 IC50 (µM), human PBMC, LPS 10 µg/ml, incubation 24 hours, supernatant ELISA): 0.3 µM; IC50 (TNF-α [3]; Homo sapiens, PBMC, 24 h, read-out: TNF-α IC50 (µM), human PBMC, LPS 10 µg/ml, incubation 24 hours, supernatant ELISA): 0.06 µM
6 | 0.1 µM | Cc1nnc2n1-c1ccccc1C(c1ccc(Cl)cc1)=NN2Cc1ccc[n+]([O-])c1 [Example 1, 3-[6-(4-Chlorophenyl)-1-methyl-4H-2,3,4,5,10b-pentaazabenz[e]azulen-4-ylmethyl]pyridine-1-oxide] | 73% | – | IC50 (TNF-α [3]; human PBMC, LPS 10 µg/ml, incubation 24 hours, supernatant ELISA, read-out: TNF-α IC50): 0.13 µM
7 | – | Cc1cc2c(s1)-n1c(C)nnc1N(Cc1ccc(C#N)cc1)N=C2c1ccccc1 [Synthetic Example 122, 6-(4-Cyanobenzyl)-2,9-dimethyl-4-phenyl-6H-5,6,7,8,9a-pentaazathieno[2,3-e]azulene] | 71% | – | –
8 | – | Cc1nnc2n1-c1ccccc1C(c1ccccc1)=NN2Cc1ccc(C#N)cc1 [Synthetic Example 111, 4-(4-Cyanobenzyl)-1-methyl-6-phenyl-4H-2,3,4,5,10b-pentaazabenz[e]azulene] | 62% | – | –
9 | – | Cc1ccc(C2=NN(Cc3ccncc3)c3nnc(C)n3-c3ccccc32)cc1 [Synthetic Example 103, 1-Methyl-6-(4-methylphenyl)-4-(pyridin-4-ylmethyl)-4H-2,3,4,5,10b-pentaazabenz[e]azulene] | 75% | – | –
10 | – | Cc1nnc2n1-c1ccccc1C(c1ccc(Br)cc1)=NN2Cc1ccc(Br)cc1 [Synthetic Example 109, 4-(4-Bromobenzyl)-6-(4-bromophenyl)-1-methyl-4H-2,3,4,5,10b-pentaaabenz[e]azulene] | – | 51% | –
11 | – | Cc1nnc2n1-c1ccccc1C(c1ccccc1)=NN2Cc1ccncc1 [Synthetic Example 95, 1-Methyl-6-phenyl-4-(pyridin-4-ylmethyl)-4H-2,3,4,5,10b-pentaazabenz[e]azulene] | 78% | – | –
12 | – | CCc1cc2c(s1)-n1c(C)nnc1N(Cc1ccncc1)N=C2c1ccccc1 [Synthetic Example 127, 2-Ethyl-9-methyl-4-phenyl-6-(pypidin-4-ylmethyl)-6H-5,6,7,8,9a-pentaazathieno[2,3-e]azulene] | – | 83% | –
13 | – | Cc1nnc2n1-c1ccc([N+](=O)[O-])cc1C(c1ccccc1)=NN2Cc1ccncc1 [Synthetic Example 102, 1-Methyl-8-nitro-6-phenyl-4-(pyridin-4-ymethyl)-4H-2,3,4,5,10b-pentaazabenz[e]azulene] | – | 78% | –
